Test results: patent US20220380368A1, “SPIROCYCLIC ANDROGEN RECEPTOR PROTEIN DEGRADERS” (THE REGENTS OF THE UNIVERSITY OF MICHIGAN, priority 2019, published 2022)
Like-named read-outs stand apart in the source and are kept apart here.

Tests used:
[1] = Mouse PK studies after oral and IV dosing; type: in vivo; conditions: for F: PO 3 mg/kg vs IV 1 mg/kg; for AUC(0-t) / clearance / half-life / Vd / Cmax / Tmax: in vivo; for clearance: read-out: IV Cl (converted); for Vd: read-out: IV VSS
Procedure: The pharmacokinetics of representative Compounds of the Disclosure were determined after oral and IV dosing at the concentrations indicated in mouse (Table 7). […] The vehicles used in these studies are either (i) 10% PEG400+90% PBS (adjusted to pH to 8.0 by 0.5 N NaOH); or (ii) 100% PEG200.

AR protein = molecular target: T1, AR protein (Homo sapiens, UniProt P10275); assay: Western blotting analysis of AR protein levels in VCaP cells, band quantification, DC50/DC90; type: cell-based; conditions: VCaP cells, Table 6; read-out: VCaP DC50
T1 construct: endogenous in cells; host or cells: VCaP
T1 sequence (P10275 1-920): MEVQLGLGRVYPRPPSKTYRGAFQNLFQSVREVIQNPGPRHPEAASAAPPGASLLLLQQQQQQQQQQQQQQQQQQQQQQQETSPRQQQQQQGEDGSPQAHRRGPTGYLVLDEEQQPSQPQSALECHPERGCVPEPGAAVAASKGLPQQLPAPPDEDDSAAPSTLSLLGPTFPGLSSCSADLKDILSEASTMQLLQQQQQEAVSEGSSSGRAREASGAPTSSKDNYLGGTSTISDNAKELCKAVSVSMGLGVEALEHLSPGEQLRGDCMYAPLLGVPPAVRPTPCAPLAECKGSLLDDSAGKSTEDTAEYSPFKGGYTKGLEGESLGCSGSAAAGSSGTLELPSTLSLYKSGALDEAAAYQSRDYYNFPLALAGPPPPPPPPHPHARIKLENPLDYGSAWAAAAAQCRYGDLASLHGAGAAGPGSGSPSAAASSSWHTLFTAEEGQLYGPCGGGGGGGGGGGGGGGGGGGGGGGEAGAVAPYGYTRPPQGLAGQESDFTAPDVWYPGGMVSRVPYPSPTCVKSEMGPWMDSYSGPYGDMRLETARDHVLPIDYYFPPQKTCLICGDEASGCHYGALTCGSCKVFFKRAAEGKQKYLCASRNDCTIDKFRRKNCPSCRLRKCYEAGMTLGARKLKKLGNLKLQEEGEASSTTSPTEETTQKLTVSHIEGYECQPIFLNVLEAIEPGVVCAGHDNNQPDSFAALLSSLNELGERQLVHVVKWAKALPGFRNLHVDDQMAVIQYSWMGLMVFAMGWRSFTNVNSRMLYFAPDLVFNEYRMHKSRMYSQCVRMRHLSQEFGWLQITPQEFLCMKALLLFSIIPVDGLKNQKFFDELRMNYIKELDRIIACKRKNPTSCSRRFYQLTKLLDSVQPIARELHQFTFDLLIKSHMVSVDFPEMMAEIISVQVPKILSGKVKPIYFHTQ
Method in brief: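 VCaP cells treated with compounds, lysed in RIPA and probed for AR by Western blot with GAPDH loading control. Band intensities normalised to GAPDH; DC50 from curve fit, DC90 calculated from DC50 and Hill slope via four-parameter equation.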

[2] = iv, 1 mg/kg, IV, dose 1 mg/kg, read-out: IV AUC(0 − t)
[3] = iv, 1 mg/kg, IV, dose 1 mg/kg, read-out: IV T1/2 (converted)
[4] = po, 3 mg/kg, PO, dose 3 mg/kg, read-out: PO AUC(0 − t)
[5] = po, 3 mg/kg, PO, dose 3 mg/kg, read-out: PO T1/2 (converted)

Structure (SMILES)	F [1] [%]	AUC(0-t) [1, 2] [ng·h/mL]	clearance ([1]; iv, 1 mg/kg, IV, dose 1 mg/kg) [mL/min/kg]	half-life [1, 3] [h]	Vd ([1]; iv, 1 mg/kg, IV, dose 1 mg/kg) [L/kg]	Cmax ([1]; po, 3 mg/kg) [ng/mL]	Tmax ([1]; po, 3 mg/kg) [h]	AUC(0-t) [1, 4] [ng·h/mL]	half-life [1, 5] [h]	DC50 (AR protein) [nM]	IV AUC(0 − t) ([1]; IV, dose 1 mg/kg) [ng·h/mL]	IV Cl ([1]; IV, dose 1 mg/kg) [mL/min/kg]	IV T1/2 ([1]; IV, dose 1 mg/kg) [h]	IV VSS ([1]; IV, dose 1 mg/kg) [L/kg]	PO AUC(0 − t) ([1]; PO, dose 3 mg/kg) [ng·h/mL]	PO Cmax ([1]; PO, dose 3 mg/kg) [ng/mL]	PO T1/2 ([1]; PO, dose 3 mg/kg) [h]	PO Tmax ([1]; PO, dose 3 mg/kg) [h]
C[C@H]1CC2(CCN(c3ccc(C(=O)N4CCN(CC5CN(c6cc7c(cc6F)C(=O)N(C6CCC(=O)NC6=O)C7=O)C5)CC4)nn3)CC2)CN1c1ccc(C#N)c(Cl)c1 (stereo partly drawn) [Cpd. No. 485, 2-chloro-4-((3S)-8-(6-(4-((1-(2-(2,6-dioxopiperidin-3-yl)-6-fluoro-1,3-dioxoisoindolin-5-yl)azetidin-3-yl)methyl)piperazine-1-carbonyl)pyridazin-3-yl)-3-methyl-2,8-diazaspiro[4.5]decan-2-yl)benzonitrile]	73	2350	6.5	9.8	2.95	1100	1	5150	7.2	1 to 10								
C[C@H]1CC2(CCN(c3ccc(C(=O)N4CCN(C5CCN(c6ccc7c(c6)C(=O)N(C6CCC(=O)NC6=O)C7=O)CC5)CC4)cc3F)CC2)CN1c1ccc(C#N)c(Cl)c1 (stereo partly drawn) [Cpd. No. 522, 2-chloro-4-((3S)-8-(4-(4-(1-(2-(2,6-dioxopiperidin-3-yl)-1,3-dioxoisoindolin-5-yl)piperidin-4-yl)piperazine-1-carbonyl)-2-fluorophenyl)-3-methyl-2,8-diazaspiro[4.5]decan-2-yl)benzonitrile]	33									< 1	1723	8.3	8.6	4.6	1731	196	6.0	2.0
C[C@H]1CC2(CCN(c3cnc(C(=O)N4CCN(CC5CN(c6cc7c(cc6F)C(=O)N(C6CCC(=O)NC6=O)C7=O)C5)CC4)cn3)CC2)CN1c1ccc(C#N)c(Cl)c1 (stereo partly drawn) [Cpd. No. 488, 2-chloro-4-((3S)-8-(5-(4-((1-(2-(2,6-dioxopiperidin-3-yl)-6-fluoro-1,3-dioxoisoindolin-5-yl)azetidin-3-yl)methyl)piperazine-1-carbonyl)pyrazin-2-yl)-3-methyl-2,8-diazaspiro[4.5]decan-2-yl)benzonitrile]	31	233	70.2	5	7.75	99.6	1	213	3.1	1 to 10								
C[C@H]1CC2(CCN(c3ccc(C(=O)N4CCC(CN5CCN(c6ccc7c(c6)C(=O)N(C6CCC(=O)NC6=O)C7=O)CC5)CC4)nn3)CC2)CN1c1ccc(C#N)c(Cl)c1 (stereo partly drawn) [Cpd. No. 489, 2-chloro-4-((3S)-8-(6-(4-((4-(2-(2,6-dioxopiperidin-3-yl)-1,3-dioxoisoindolin-5-yl)piperazin-1-yl)methyl)piperidine-1-carbonyl)pyridazin-3-yl)-3-methyl-2,8-diazaspiro[4.5]decan-2-yl)benzonitrile]	37	2140	7.33	7.45	2.72	477	1	2390	7.5	1 to 10								
C[C@H]1CC2(CCN(c3ccc(C(=O)N4CCC(CN5CCN(c6cc7c(cc6F)C(=O)N(C6CCC(=O)NC6=O)C7=O)CC5)CC4)nn3)CC2)CN1c1ccc(C#N)c(Cl)c1 (stereo partly drawn) [Cpd. No. 490, 2-chloro-4-((3S)-8-(6-(4-((4-(2-(2,6-dioxopiperidin-3-yl)-6-fluoro-1,3-dioxoisoindolin-5-yl)piperazin-1-yl)methyl)piperidine-1-carbonyl)pyridazin-3-yl)-3-methyl-2,8-diazaspiro[4.5]decan-2-yl)benzonitrile]	25	4920	3	8.7	1.74	639	1	3730	7.1	1 to 10								
